From the supplement of paper PMC10627819

Legend:
[1] = test system: B. subtilis 168; test: fitness (endpoint OD595 vs no drug) (fraction); higher = more growth
Outline: (§1)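 Each well of a 384-well plate received 30 µl of culture at OD595 0.01, or 55 µl for S. pneumoniae. TSB, LB Lennox or CY served as media at 37 °C. OD595 was taken every 30 min for 14 h and corrected by subtracting the first reading. Fitness is the optical density at stationary-phase entry divided by the robust mean of no-drug controls, capped at 1.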

[2] = test system: S. pneumoniae D39V; test: as above
Outline: as §1

[3] = test system: B. subtilis 168; test: Bliss interaction score (quartile over a dose matrix) (fitness difference); higher = more antagonism (negative = synergy)
Outline: (§2)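 Fitness here means normalised growth, inferred for single drugs from the combination data. Growth was OD595 at entry into stationary phase, divided by the plate's robust no-drug mean and capped at 1. The Bliss score is observed minus expected fitness, with the expectation being the product, and its quartiles span technical, biological and donor/recipient replicates.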

[4] = test system: S. aureus DSM 20231; test: as above
Outline: as §2

[5] = test system: S. aureus Newman; test: as above
Outline: as §2

[6] = test system: S. pneumoniae D39V; test: as above
Outline: as §2

[7] = test system: S. aureus Newman; test: fitness (endpoint OD595 vs no drug) (fraction); higher = more growth; conditions: main component drawn
Outline: as §1
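For Bliss interaction score (quartile over a dose matrix) in this document: first quartile when negative (synergy) and third quartile when positive (antagonism).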

CC(=O)NC[C@H]1CN(c2ccc(N3CCOCC3)c(F)c2)C(=O)O1 [Linezolid] + CN(C)c1cc(NC(=O)CNC(C)(C)C)c(O)c2c1C[C@H]1C[C@H]3[C@H](N(C)C)C(O)=C(C(N)=O)C(=O)[C@@]3(O)C(O)=C1C2=O [Tigecycline]
fitness, [1], one replicate
Conditions | partner 0.039 µg/mL | partner 0.078 µg/mL | partner 0.125 µg/mL | partner 0.156 µg/mL | partner 0.25 µg/mL | partner 0.5 µg/mL
first compound 0.0625 µg/mL | 0.872 | 0.848 | – | 0.896 | – | –
first compound 0.125 µg/mL | – | – | ≥ 1 | – | 0.871 | 0.909
first compound 0.25 µg/mL | – | – | 0.906 | – | 0.839 | 0.782
first compound 0.5 µg/mL | – | – | 0.214 | – | 0.0983 | 0.111

Conditions | fitness
[1], first compound 0.125 µg/mL, partner 0.039 µg/mL | 0.542
[1], first compound 0.125 µg/mL, partner 0.078 µg/mL | 0.537
[1], first compound 0.125 µg/mL, partner 0.156 µg/mL | 0.543
[1], first compound 0.25 µg/mL, partner 0.078 µg/mL | 0.0754
[1], first compound 0.25 µg/mL, partner 0.156 µg/mL | 0.0704
[1], first compound 0.5 µg/mL, partner 0.039 µg/mL | 0.0624
[1], first compound 0.5 µg/mL, partner 0.078 µg/mL | 0.0638
[1], first compound 0.5 µg/mL, partner 0.156 µg/mL | 0.0364
[2], first compound 0.105 µg/mL, partner 0.65 µg/mL | 0.829
[2], first compound 0.105 µg/mL, partner 1.3 µg/mL | 0.785
[2], first compound 0.105 µg/mL, partner 2.6 µg/mL | 0.801
[2], first compound 0.2 µg/mL, partner 0.65 µg/mL | 0.712
[2], first compound 0.2 µg/mL, partner 1.3 µg/mL | 0.694
[2], first compound 0.2 µg/mL, partner 2.6 µg/mL | 0.692
[2], first compound 0.21 µg/mL, partner 0.65 µg/mL | 0.718
[2], first compound 0.21 µg/mL, partner 1.3 µg/mL | 0.71
[2], first compound 0.21 µg/mL, partner 2.6 µg/mL | 0.66
[2], first compound 0.4 µg/mL, partner 0.65 µg/mL | 0.588
[2], first compound 0.4 µg/mL, partner 1.3 µg/mL | 0.582
[2], first compound 0.4 µg/mL, partner 2.6 µg/mL | 0.552
[2], first compound 0.42 µg/mL, partner 0.65 µg/mL | 0.393
[2], first compound 0.42 µg/mL, partner 1.3 µg/mL | 0.366
[2], first compound 0.42 µg/mL, partner 2.6 µg/mL | 0.323
[2], first compound 0.8 µg/mL, partner 0.65 µg/mL | 0.252
[2], first compound 0.8 µg/mL, partner 1.3 µg/mL | 0.273
[2], first compound 0.8 µg/mL, partner 2.6 µg/mL | 0.275

Conditions | Bliss interaction score
[3] | 0.11
[4] | -0.0817
[5] | -0.0561
[6] | -0.158

CC(=O)NC[C@H]1CN(c2ccc(N3CCOCC3)c(F)c2)C(=O)O1 [Linezolid] + CN[C@@H]1[C@H](O[C@H]2[C@H](O[C@H]3[C@H](O)[C@@H](O)[C@H](N=C(N)N)[C@@H](O)[C@@H]3N=C(N)N)O[C@@H](C)[C@]2(O)C=O)O[C@@H](CO)[C@H](O)[C@H]1O [Streptomycin]
fitness, one replicate
Conditions | partner 2 µg/mL | partner 4 µg/mL | partner 8 µg/mL | partner 16 µg/mL
[1], first compound 0.0625 µg/mL | 0.938 | 0.556 | 0.0308 | –
[2], first compound 0.2 µg/mL | 0.826 | – | – | 0.584
[2], first compound 0.4 µg/mL | 0.659 | – | – | 0.41
[2], first compound 0.8 µg/mL | 0.292 | – | – | 0.163

fitness
Conditions | partner 2 µg/mL | partner 4 µg/mL | partner 8 µg/mL
[1], first compound 0.125 µg/mL | 0.543 | 0.454 | 0.0968
[1], first compound 0.25 µg/mL | 0.142 | 0.0931 | 0.0559
[1], first compound 0.5 µg/mL | 0.0384 | 0.0468 | 0.0218
[2], first compound 0.105 µg/mL | 0.763 | 0.752 | 0.803
[2], first compound 0.2 µg/mL | – | 0.781 | 0.684
[2], first compound 0.21 µg/mL | 0.655 | 0.683 | 0.719
[2], first compound 0.4 µg/mL | – | 0.625 | 0.56
[2], first compound 0.42 µg/mL | 0.376 | 0.337 | 0.307
[2], first compound 0.8 µg/mL | – | 0.283 | 0.233

Conditions | Bliss interaction score
[3] | 0.0492
[4] | -0.0536
[5] | -0.0504
[6] | -0.112

CO[C@H]1/C=C/O[C@@]2(C)Oc3c(C)c(O)c4c(O)c(c(/C=N/N5CCN(C)CC5)c(O)c4c3C2=O)NC(=O)/C(C)=C\C=C\[C@H](C)[C@H](O)[C@@H](C)[C@@H](O)[C@@H](C)[C@H](OC(C)=O)[C@@H]1C [Rifampicin] + Cc1cc(NS(=O)(=O)c2ccc(N)cc2)no1 [Sulfamethoxazol]
[2], first compound 0.025 µg/mL, one replicate
Conditions | fitness
partner 1 µg/mL | 0.837
partner 2 µg/mL | 0.831
partner 4 µg/mL | 0.828

fitness, [2]
Conditions | partner 1 µg/mL | partner 2 µg/mL | partner 4 µg/mL
first compound 0.05 µg/mL | 0.933 | 0.93 | 0.853
first compound 0.2 µg/mL | 0.0772 | 0.0834 | 0.104

Conditions | Bliss interaction score
[3] | -0.052
[4] | -0.0278
[5] | -0.0257
[6] | 0.0639

CO[C@H]1/C=C/O[C@@]2(C)Oc3c(C)c(O)c4c(O)c(c(/C=N/N5CCN(C)CC5)c(O)c4c3C2=O)NC(=O)/C(C)=C\C=C\[C@H](C)[C@H](O)[C@@H](C)[C@@H](O)[C@@H](C)[C@H](OC(C)=O)[C@@H]1C [Rifampicin] + Cn1nnc(-c2ccc(-c3ccc(N4C[C@H](CO)OC4=O)cc3F)cn2)n1 [Tedizolid]
fitness, [2], one replicate
Conditions | partner 0.125 µg/mL | partner 0.25 µg/mL | partner 0.5 µg/mL
first compound 0.025 µg/mL | 0.832 | 0.726 | 0.254
first compound 0.2 µg/mL | – | 0 | 0

fitness, [2]
Conditions | partner 0.03125 µg/mL | partner 0.0625 µg/mL | partner 0.125 µg/mL | partner 0.25 µg/mL | partner 0.5 µg/mL
first compound 0.05 µg/mL | 0.98 | 0.97 | 0.907 | 0.591 | 0.21
first compound 0.1 µg/mL | 0.743 | 0.79 | – | 0.343 | 0.181
first compound 0.2 µg/mL | 0.197 | 0.233 | 0.122 | – | –

Conditions | Bliss interaction score
[3] | -0.0782
[4] | 0.0203
[5] | -0.0238
[6] | 0.133

CN[C@@H]1[C@H](O[C@H]2[C@H](O[C@H]3[C@H](O)[C@@H](O)[C@H](N=C(N)N)[C@@H](O)[C@@H]3N=C(N)N)O[C@@H](C)[C@]2(O)C=O)O[C@@H](CO)[C@H](O)[C@H]1O [Streptomycin] + CCCCCCCCCC(=O)N[C@@H]1[C@H]([C@@H]([C@H](O[C@H]1OC2=C3C=C4C=C2OC5=C(C=C(C=C5)[C@H]([C@H]6C(=O)N[C@@H](C7=C(C(=CC(=C7)O)OC8[C@H]([C@H]([C@@H]([C@H](O8)CO)O)O)O)C9=C(C=CC(=C9)[C@H](C(=O)N6)NC(=O)[C@@H]4NC(=O)[C@@H]1C2=CC(=CC(=C2)OC2=C(C=CC(=C2)[C@H](C(=O)N[C@H](CC2=CC(=C(O3)C=C2)Cl)C(=O)N1)N)O)O)O)C(=O)O)O[C@H]1[C@@H]([C@H]([C@@H]([C@H](O1)CO)O)O)NC(=O)C)Cl)CO)O)O [Teicoplanin]
fitness, [7]
Conditions | first compound 1 µg/mL | first compound 2 µg/mL | first compound 4 µg/mL
partner 0.1562 µg/mL | ≥ 1 | ≥ 1 | –
partner 0.3125 µg/mL | ≥ 1 | 0.932 | –
partner 0.625 µg/mL | 0.917 | 0.803 | 0.344

fitness, [7], one replicate
Conditions | first compound 2 µg/mL | first compound 4 µg/mL | first compound 8 µg/mL
partner 0.62 µg/mL | 0.737 | 0.574 | 0.0838
partner 1.24 µg/mL | 0.527 | 0.0741 | 0.0255
partner 2.48 µg/mL | 0.0707 | 0.0385 | 0.103

main component drawn
Conditions | Bliss interaction score
[3] | -0.0977
[4] | -0.227
[5] | -0.118
[6] | -0.0928
